In patent publication US12122780B2, “Pyrimidinyl group-containing tricyclic compound serving as c-Met inhibitor” (JIANGSU AOSAIKANG PHARMACEUTICAL CO., LTD., priority 2019, dated 2024):
Where a name gives a salt, the structure may show the parent alone.

Tests used:
EBC-1 cells = test: EBC-1 cell proliferation experiment (CellTiter-Glo); type: cell-based, human; conditions: Homo sapiens, EBC-1, 72 h, 3 days
Description: MEM medium, fetal bovine serum, penicillin/streptomycin antibiotics were purchased from Wisent. EBC-1 cell line was purchased from Nanjing COBIO Bioscience Co., LTD. Envision multi-label analyzer (PerkinElmer).
EBC-1 cells were seeded in a white 96-well plate, […] cell suspension per well, which contained 3000 EBC-1 cells. The cell plate was placed in a carbon dioxide incubator for overnight culture.
The compound to be tested was diluted 5-fold to the eighth concentration with a discharge gun, i.e., from 2 mM to […], and double duplicate wells experiment was set. 78 μL of the medium was added to the middle plate, then 2 μL per well of gradient diluted compound was transferred to the corresponding position on the middle plate, then mixed well and 20 μL per well was transferred to the cell plate. The cell plate was cultured in a carbon dioxide incubator for 3 days. Another cell plate was prepared and the signal values were read on the day of dosing as […] to be used in the data analysis. 25 μL of Promega CellTiter-Glo was added to each well of this cell plate, and incubated at room temperature for 10 minutes to stabilize the luminescence signal. Readings were taken using a PerkinElmer Envision multi-label analyzer.
25 μL of Promega CellTiter-Glo reagent was added to each well of this cell plate, and incubated at room temperature for 10 minutes to stabilize the luminescence signal. Readings were taken using a PerkinElmer Envision multi-label analyzer.
Using the equation (Sample-Min)/(Max-Min)*100% to convert the original data to the inhibition rate, the IC50 value can be obtained by curve fitting with four parameters (obtained by “log(inhibitor) vs. response in GraphPad Prism—Variable slope mode).

Hs746T cells = test: Hs746T cell proliferation experiment (CellTiter-Glo); type: cell-based; conditions: Homo sapiens, 96 h, 4 days
Description: DMEM medium was purchased from Gibco, and fetal bovine serum was purchased from Hyclone. Hs746T cell line was purchased from ATCC. Envision multi-label analyzer (PerkinElmer).
Hs746T cells were seeded in a 384-well plate, 50 μL of cell suspension per well, which contained 1500 Hs746T cells. The cell plate was placed in a carbon dioxide incubator for overnight culture.
The compounds to be tested were 3-fold diluted into 9 concentrations with Tecan, double-duplicate well experiment was set, and the final compound concentrations added to the 384-well cell plate were 1000 nM to 0.15 nM. The cell plate was cultured in a carbon dioxide incubator for 4 days.
After 4 days, 25 μL of Promega CellTiter-Glo reagent was added to each well of this cell plate, and incubated at room temperature for 10 minutes to stabilize the luminescence signal. Readings were taken using a PerkinElmer Envision multi-label analyzer.
The action curves of the compounds were automatically fitted using Xlfit software and the values of IC50 were calculated, High control was the values of DMSO-treated wells and Low control was the values of cell-free medium wells.

[1] = test system: human gastric cancer Hs746T xenograft tumor; test: In vivo drug efficacy, human gastric cancer Hs746T xenograft tumor in nude mice; parameters: species or system BALB/c nude mice; conditions: for TGI (tumor growth inhibition rate) / TRTV/CRTV (relative tumor proliferation rate T/C): after 20 days; for Tumor volume: n = 6
Description: BALB/c nude mice, female, 6-8 weeks old, weighing about 18-22 grams, animals were raised in SPF-class animal rooms in IVC (independent air supply system, constant temperature and humidity) cages (3 per cage). All cages, bedding and water were disinfected before use. All animals had free access to standard certified commercial laboratory diets. 0.2 mL (5×10^6 cells) of Hs746T cell suspension (with matrix gel, volume ratio 1:1) was subcutaneously inoculated on the right back of each mouse, and a total of 55 mice were inoculated. When the average tumor volume reached 160 mm^3, a random stratified grouping method was adopted according to the tumor volume and animal body weight to start grouping administration. The test compound was orally administered daily, the two doses of hydrochloride of compound 25 were 3 mg/kg and 6 mg/kg, respectively, and the dose of hydrochloride of compound 39 was 3 mg/kg. The tumor diameter was measured with vernier calipers twice a week. The calculation formula of tumor volume was: V=0.5a×b^2, a and b represented the long diameter and short diameter of the tumor, respectively. The anti-tumor efficacy of the compound was evaluated by TGI (%) or the relative tumor proliferation rate T/C (%). Relative tumor proliferation rate T/C (%)=TRTV/CRTV×100% (TRTV: average RTV in the treatment group; CRTV: average RTV in the negative control group). The relative tumor volume (RTV) was calculated according to the results of tumor measurement, the calculation formula was RTV=Vt/V0, wherein V0 was the tumor volume measured at the time of the grouping administration (i.e. D0), Vt was the tumor volume of the mice at a certain measurement, and TRTV and CRTV were taken on the same day. TGI (%) reflected the tumor growth inhibition rate. TGI (%)=[(1−(average tumor volume of a certain treatment group after administration-average tumor volume of the treatment group at the beginning of administration))/(average tumor volume of the solvent control group after the administration-average tumor volume of the solvent control group at the beginning of the administration)]×100%. Statistical analysis was performed based on the tumor volume (RTV) on the 20th day, and SPSS software was used for analysis.

[2] = Pharmacokinetics of single intravenous and oral administration in dogs; type: in vivo; conditions: for Vd / clearance / half-life / bioavailability: dog, plasma; for Vd / clearance / half-life / Exposure AUC: intravenous injection, 1 mg/kg; for Vd: read-out: Apparent volume of distribution; for clearance: read-out: Clearance rate; for half-life: read-out: Half-life (T1/2) (converted); for bioavailability / Exposure AUC0-last / Maximum blood concentration / Peak time: oral administration, 5 mg/kg
Description: The objective of this experiment was to study the pharmacokinetics (PK) of the test compound in different species after a single intravenous and a single oral administration.
After intravenous injection or oral administration, animal blood samples were collected and the actual blood collection time was recorded. Immediately after collection, blood samples were transferred to labeled centrifuge tubes containing K2-EDTA and subsequently centrifuged and processed to obtain plasma. Plasma was transferred to pre-cooled centrifuge tubes, snap-frozen in dry ice and stored in an ultra-low temperature refrigerator at −70±10° C. until LC-MS was performed.
Plasma drug concentration data of the compounds were processed using pharmacokinetic software with a non-compartmental model. The peak concentration (Cmax) and time to peak (Tmax), as well as the quantifiable end time, were obtained directly from the blood concentration-time diagram. The log-linear trapezoidal method was used to calculate the following pharmacokinetic parameters: half-life (T1/2), apparent volume of distribution (Vdss) and clearance rate (Cl), and the area under the time-plasma concentration curve from 0 points to the end time (AUC0-last), the initial concentration (C0).

[3] = 3 mg/kg oral daily, day 0, mean ± standard error
[4] = 3 mg/kg oral daily, day 2, mean ± standard error
[5] = 3 mg/kg oral daily, day 5, mean ± standard error
[6] = 3 mg/kg oral daily, day 9, mean ± standard error
[7] = 3 mg/kg oral daily, day 12, mean ± standard error
[8] = 3 mg/kg oral daily, day 16, mean ± standard error
[9] = 3 mg/kg oral daily, day 19, mean ± standard error
[10] = 3 mg/kg oral daily, day 20, mean ± standard error

CC(C)N1CCC(COc2cnc(-c3cccc(Cn4c(=O)ccn5c6cc(C#N)ccc6nc45)c3)nc2)CC1 [Hydrochloride of compound 25]
IC50 (EBC-1 cells): 1.87 nM
IC50 (Hs746T cells): 2.2 nM
TGI (tumor growth inhibition rate) ([1]; 3 mg/kg oral daily): 96.6%
TRTV/CRTV (relative tumor proliferation rate T/C) ([1]; 3 mg/kg oral daily): 10.2%
Tumor volume [1, 3]: 160 ± 7 mm^3
Tumor volume [1, 4]: 179 ± 8 mm^3
Tumor volume [1, 5]: 173 ± 12 mm^3
Tumor volume [1, 6]: 151 ± 7 mm^3
Tumor volume [1, 7]: 144 ± 6 mm^3
Tumor volume [1, 8]: 139 ± 20 mm^3
Tumor volume [1, 9]: 221 ± 49 mm^3
Tumor volume [1, 10]: 234 ± 79 mm^3
Tumor volume ([1]; 3 mg/kg oral daily, day 20, mean ± standard error, listed as hydrochloride of compound 25): 234 mm^3
TGI (tumor growth inhibition rate) ([1]; 6 mg/kg oral daily): 106.7%
TRTV/CRTV (relative tumor proliferation rate T/C) ([1]; 6 mg/kg oral daily): 0.7%
Tumor volume ([1]; 6 mg/kg oral daily, day 0, mean ± standard error): 160 ± 7 mm^3
Tumor volume ([1]; 6 mg/kg oral daily, day 2, mean ± standard error): 146 ± 6 mm^3
Tumor volume ([1]; 6 mg/kg oral daily, day 5, mean ± standard error): 118 ± 6 mm^3
Tumor volume ([1]; 6 mg/kg oral daily, day 9, mean ± standard error): 89 ± 9 mm^3
Tumor volume ([1]; 6 mg/kg oral daily, day 12, mean ± standard error): 83 ± 9 mm^3
Tumor volume ([1]; 6 mg/kg oral daily, day 16, mean ± standard error): 55 ± 6 mm^3
Tumor volume ([1]; 6 mg/kg oral daily, day 19, mean ± standard error): 30 ± 4 mm^3
Tumor volume ([1]; 6 mg/kg oral daily, day 20, mean ± standard error): 17 ± 4 mm^3
Tumor volume ([1]; 6 mg/kg oral daily, day 20, mean ± standard error, listed as hydrochloride of compound 25): 17 mm^3
Vd [2]: 14.4 L/kg
clearance [2]: 24.2 mL/min/kg
half-life [2]: 472 min
bioavailability [2]: 57.7%
Exposure AUC [2]: 1230 nM·h
Exposure AUC0-last [2]: 3.54 µM·h
Maximum blood concentration [2]: 246 nM
Peak time [2]: 4 h

CC(C)(O)CN1CCC(COc2cnc(-c3cccc(Cn4c(=O)ccn5c6cc(C#N)ccc6nc45)c3)nc2)CC1 [Hydrochloride of compound 39]
IC50 (EBC-1 cells): 4.81 nM
IC50 (Hs746T cells): 1.5 nM
TGI (tumor growth inhibition rate) ([1]; 3 mg/kg oral daily): 106.7%
TRTV/CRTV (relative tumor proliferation rate T/C) ([1]; 3 mg/kg oral daily): 0.7%
Tumor volume [1, 3]: 160 ± 6 mm^3
Tumor volume [1, 4]: 159 ± 8 mm^3
Tumor volume [1, 5]: 125 ± 4 mm^3
Tumor volume [1, 6]: 92 ± 3 mm^3
Tumor volume [1, 7]: 82 ± 5 mm^3
Tumor volume [1, 8]: 59 ± 7 mm^3
Tumor volume [1, 9]: 26 ± 4 mm^3
Tumor volume [1, 10]: 16 ± 3 mm^3
Tumor volume ([1]; 3 mg/kg oral daily, day 20, mean ± standard error, listed as hydrochloride of compound 39): 16 mm^3
Vd [2]: 14.6 L/kg
clearance [2]: 18.7 mL/min/kg
half-life [2]: 568 min
bioavailability [2]: 70.6%
Exposure AUC [2]: 1340 nM·h
Exposure AUC0-last [2]: 4.74 µM·h
Maximum blood concentration [2]: 451 nM
Peak time [2]: 5 h
